Key:
Assay type in all cases: functional
[1] = system: A2780; experiment: Growth inhibition of human A2780 cells by SRB assay
[2] = system: A549; experiment: Growth inhibition of human A549 cells by SRB assay
[3] = system: COLO 205; experiment: Growth inhibition of human COLO205 cells by SRB assay
[4] = system: KB; experiment: Growth inhibition of human KB cells by SRB assay
[5] = system: MCF7; experiment: Growth inhibition of human MCF7 cells by SRB assay
[6] = Growth inhibition of human DWD cells by SRB assay
[7] = system: HOP-62; experiment: Growth inhibition of human HOP62 cells by SRB assay
[8] = Growth inhibition of human Gurav cells by SRB assay
[9] = system: ZR-75-1; experiment: Growth inhibition of human ZR-75-1 cells by SRB assay
[10] = system: PC-3; experiment: Growth inhibition of human PC3 cells by SRB assay
[11] = system: SiHa; experiment: Growth inhibition of human SiHa cells by SRB assay

| SMILES | GI50 [1] [µM] | GI50 [2] [µM] | GI50 [3] [µM] | GI50 [4] [µM] | GI50 [5] [µM] | GI50 [10] [µM] | GI50 [6] [µM] | GI50 [7] [µM] | GI50 [8] [µM] | GI50 [9] [µM] | GI50 [11] [µM] |
| --- | --- | --- | --- | --- | --- | --- | --- | --- | --- | --- | --- |
| Cc1ccc2[nH]c(-c3ccc(-c4ccc(-c5ccc(O)cc5)cc4)cc3)nc2c1 | 31.2 | 3.52 | 100 | 21.2 | 12.1 | 30 | 21.2 | 41.2 | 11.3 | 18.2 | 33.5 |
| COc1ccc(-c2ccc(-c3ccc(-c4nc5cc(C)ccc5[nH]4)cc3)cc2)cc1OC | 2.13 | 2.1 | 2.32 | 2.19 | 0.19 | 2.56 | 1.72 | 2.12 | 1.31 | 3.1 | 3.51 |
| FC(F)(F)Oc1ccc(-c2ccc(-c3ccc(-c4nc5ccccc5[nH]4)cc3)cc2)cc1 | 100 | 38 | 100 | 39.1 | 38.4 | 100 | 100 | 100 | 100 | 100 | 38.4 |
| COc1ccc(-c2ccc(-c3ccc(-c4nc5ccccc5[nH]4)cc3)cc2)cc1 | 100 | 38.1 | 45.2 | 47.2 | 33.3 | 100 | 100 | 100 | 38.1 | 35.1 | 2.76 |
| c1ccc(-c2ccc(-c3ccc(-c4nc5ccccc5[nH]4)cc3)cc2)cc1 | 32.1 | 41.2 | 100 | 39.7 | 39.2 | 41.2 | 100 | 100 | 100 | 100 | 100 |
| Cc1ccc2[nH]c(-c3ccc(-c4ccc(-c5ccc(OC(F)(F)F)cc5)cc4)cc3)nc2c1 | 12.3 | 3.56 | 30.6 | 41.2 | 31 | 2.01 | 41.1 | 24.2 | 11 | 2.41 | 28.3 |
| Oc1ccc(-c2ccc(-c3ccc(-c4nc5ccccc5[nH]4)cc3)cc2)cc1 | 36 | 33.1 | 100 | 41 | 30.5 | 47 | 46.3 | 47.2 | 100 | 100 | 33.3 |
| Cc1ccc2[nH]c(-c3ccc(-c4ccc(-c5ccc(C(F)(F)F)cc5)cc4)cc3)nc2c1 | 12.3 | 3.52 | 30.6 | 41.2 | 31 | 2.01 | 38.2 | 24.2 | 12 | 2.41 | 33.2 |
| COc1cc(-c2ccc(-c3ccc(-c4nc5ccccc5[nH]4)cc3)cc2)cc(OC)c1OC | 9.21 | 2.11 | 8.32 | 2.98 | 6.38 | 9.72 | 8.01 | 9.43 | 7.1 | 9.71 | 4.98 |
| Oc1cccc2[nH]c(-c3ccc(-c4ccc(-c5cccc(Cl)c5)cc4)cc3)nc12 | 2.8 | 2.4 | 8.6 | 2.28 | 3.42 | 2.56 | 2.1 | 2.26 | 2.31 | 2.41 | 8.4 |
| COc1ccc(-c2ccc(-c3ccc(-c4nc5c(O)cccc5[nH]4)cc3)cc2)cc1OC | 2.71 | 1.31 | 1.32 | 2.71 | 0.19 | 1.24 | 1.4 | 2.21 | 1.11 | 2.11 | 1.11 |
| Oc1cccc2[nH]c(-c3ccc(-c4ccc(-c5ccc(OC(F)(F)F)cc5)cc4)cc3)nc12 | 2.9 | 0.19 | 8.32 | 3.31 | 2.21 | 7.41 | 3.1 | 2.27 | 3.6 | 3.8 | 8.41 |
| COc1cccc2c1C(=O)c1c(O)c3c(c(O)c1C2=O)C[C@@](O)(C(=O)CO)C[C@@H]3O[C@H]1C[C@H](N)[C@H](O)[C@H](C)O1 [DOXORUBICIN] | 0.16 |  | 0.14 | 0.17 | 0.17 |  | 0.1 | 0.14 | 0.17 |  | 0.14 |

The remaining molecules from weak to strong by GI50 [1], led by results:

| GI50 [1] [µM] | GI50 [2] [µM] | GI50 [3] [µM] | GI50 [4] [µM] | GI50 [5] [µM] | GI50 [10] [µM] | SMILES | GI50 [6] [µM] | GI50 [7] [µM] | GI50 [8] [µM] | GI50 [9] [µM] | GI50 [11] [µM] |
| --- | --- | --- | --- | --- | --- | --- | --- | --- | --- | --- | --- |
| 100 | 36.6 | 33.9 | 47.2 | 41.4 | 45.2 | FC(F)(F)c1ccc(-c2ccc(-c3ccc(-c4nc5ccccc5[nH]4)cc3)cc2)cc1 | 100 | 100 | 39.1 | 48.3 | 100 |
| 100 | 30.1 | 100 | 39.3 | 41.2 | 100 | CN(C)c1ccc(-c2ccc(-c3ccc(-c4nc5ccccc5[nH]4)cc3)cc2)cc1 | 100 | 100 | 100 | 100 | 100 |
| 48.2 | 33.2 | 100 | 41.3 | 36.2 | 41.2 | Fc1ccc(-c2ccc(-c3ccc(-c4nc5ccccc5[nH]4)cc3)cc2)cc1 | 35.6 | 39.3 | 100 | 100 | 29.7 |
| 41 | 8.32 | 1.21 | 4.01 | 2.2 | 1.24 | Oc1cccc2[nH]c(-c3ccc(-c4ccc(-c5ccccc5)cc4)cc3)nc12 | 9.68 | 9.04 | 1.11 | 35.6 | 9.71 |
| 3.01 | 7.1 | 6.32 | 4.2 | 2.31 | 8.42 | CN(C)c1ccc(-c2ccc(-c3ccc(-c4nc5c(O)cccc5[nH]4)cc3)cc2)cc1 | 9.21 | 8.25 | 8.21 | 4.1 | 6.24 |
| 2.8 | 2.8 | 2.78 | 2.26 | 1.21 | 2.67 | Cc1ccc2[nH]c(-c3ccc(-c4ccc(-c5cccc(Cl)c5)cc4)cc3)nc2c1 | 2.51 | 2.74 | 2.12 | 3.45 | 3.6 |
| 2.21 | 3.51 | 9.21 | 6.24 | 3.13 | 8.12 | Cc1ccc2[nH]c(-c3ccc(-c4ccc(-c5ccc(N(C)C)cc5)cc4)cc3)nc2c1 | 3.23 | 4.23 | 6.24 | 7.2 | 7.11 |
